Results from patent publication US20230346952A1, “CANNABINOID GLYCOSIDE PRODRUGS AND METHODS OF SYNTHESIS” (priority 2015, published 2023).
Like-named read-outs stand apart in the source and are kept apart here.

Tests used:
[1] = 1,000 mg/kg mixed glycosides by oral gavage; 6 hours; HPLC
[2] = molecular target: safety screen panel of human pharmacological targets (Homo sapiens, UniProt P41143); assay: biochemical; details: read-out: percent inhibition: delta (DOP) (h) (agonist radioligand)
[3] = molecular target: safety screen panel of human pharmacological targets (Homo sapiens, UniProt P08588); assay: biochemical; details: read-out: percent inhibition: beta 1 (h) {agonist radioligand)
[4] = molecular target: safety screen panel of human pharmacological targets (Rattus norvegicus, UniProt P34975); assay: biochemical; details: read-out: percent inhibition: kappa (KOP) (agonist radioligand)
[5] = molecular target: safety screen panel of human pharmacological targets (Homo sapiens, UniProt P34972); assay: biochemical; details: read-out: percent inhibition: CB2 (h) (agonist radioligand)
[6] = molecular target: safety screen panel of human pharmacological targets (Homo sapiens, UniProt Q01959); assay: biochemical; details: read-out: percent inhibition: dopamine transporter (b) (antagonist radioligand)
[7] = molecular target: safety screen panel of human pharmacological targets (Homo sapiens, UniProt P22303); assay: biochemical; details: read-out: percent inhibition: acetylcholinesterase (h)
[8] = molecular target: safety screen panel of human pharmacological targets (Homo sapiens, UniProt P35372); assay: biochemical; details: read-out: percent inhibition: mu (MOP) (h) (agonist radioligand)
[9] = molecular target: T1, safety screen panel of human pharmacological targets (Homo sapiens, UniProt P46098); assay: biochemical; details: read-out: percent inhibition: 5-HT3 (h) (antagonist radioligand)
T1 sequence (P46098 24-478): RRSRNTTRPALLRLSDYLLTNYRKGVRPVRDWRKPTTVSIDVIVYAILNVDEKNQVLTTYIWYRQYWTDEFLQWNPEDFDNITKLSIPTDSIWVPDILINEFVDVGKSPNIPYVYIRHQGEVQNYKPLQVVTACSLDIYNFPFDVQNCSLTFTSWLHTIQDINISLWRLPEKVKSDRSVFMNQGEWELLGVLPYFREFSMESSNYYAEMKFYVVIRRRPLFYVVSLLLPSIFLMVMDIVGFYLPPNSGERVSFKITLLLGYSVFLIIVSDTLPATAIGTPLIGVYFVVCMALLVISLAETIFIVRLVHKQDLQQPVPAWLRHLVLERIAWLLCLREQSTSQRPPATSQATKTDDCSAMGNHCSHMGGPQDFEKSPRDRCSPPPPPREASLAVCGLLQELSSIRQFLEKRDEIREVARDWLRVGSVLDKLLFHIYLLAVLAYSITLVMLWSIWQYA

[10] = molecular target: safety screen panel of human pharmacological targets (Homo sapiens, UniProt P35367); assay: biochemical; details: read-out: percent inhibition: H1 (h) (antagonist radioligand)
[11] = molecular target: safety screen panel of human pharmacological targets (Homo sapiens, UniProt P06239); assay: biochemical; details: read-out: percent inhibition: Lck kinase (h)
[12] = molecular target: safety screen panel of human pharmacological targets (Homo sapiens, UniProt P43681); assay: biochemical; details: read-out: percent inhibition: N neuronal alpha 4beta 2 h) (agonist radioligand)
[13] = molecular target: safety screen panel of human pharmacological targets (Homo sapiens, UniProt P07550); assay: biochemical; details: read-out: percent inhibition: beta 2 (h) (antagonist radioligand)
[14] = molecular target: T2, safety screen panel of human pharmacological targets (Homo sapiens, UniProt P04150); assay: biochemical; details: read-out: percent inhibition: GR (h) (agonist radioligand)
T2 sequence (P04150 1-777): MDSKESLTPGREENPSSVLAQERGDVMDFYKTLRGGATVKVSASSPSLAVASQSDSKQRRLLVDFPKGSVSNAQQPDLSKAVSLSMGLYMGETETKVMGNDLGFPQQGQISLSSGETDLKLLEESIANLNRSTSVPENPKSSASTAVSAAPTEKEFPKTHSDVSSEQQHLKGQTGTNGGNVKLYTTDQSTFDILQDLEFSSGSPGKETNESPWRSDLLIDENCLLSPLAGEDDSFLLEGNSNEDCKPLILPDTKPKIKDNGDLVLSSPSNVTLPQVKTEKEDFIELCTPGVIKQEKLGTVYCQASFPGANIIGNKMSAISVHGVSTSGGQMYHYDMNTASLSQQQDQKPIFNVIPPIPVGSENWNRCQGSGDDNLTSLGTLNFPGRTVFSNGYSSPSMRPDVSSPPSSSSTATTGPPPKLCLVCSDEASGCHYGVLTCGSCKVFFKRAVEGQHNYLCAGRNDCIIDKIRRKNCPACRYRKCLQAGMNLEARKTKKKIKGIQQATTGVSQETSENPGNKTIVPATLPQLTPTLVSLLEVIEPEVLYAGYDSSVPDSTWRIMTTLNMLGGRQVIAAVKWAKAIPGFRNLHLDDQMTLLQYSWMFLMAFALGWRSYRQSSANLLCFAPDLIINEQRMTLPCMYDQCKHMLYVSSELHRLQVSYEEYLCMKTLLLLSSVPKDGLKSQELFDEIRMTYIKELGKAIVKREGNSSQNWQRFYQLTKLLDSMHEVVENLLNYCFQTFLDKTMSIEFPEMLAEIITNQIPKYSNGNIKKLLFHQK

[15] = molecular target: safety screen panel of human pharmacological targets (Homo sapiens, UniProt P20309); assay: biochemical; details: read-out: percent inhibition: M3 (h) (antagonist radioligand)
[16] = tested on: safety screen panel of human pharmacological targets
[17] = molecular target: safety screen panel of human pharmacological targets (Homo sapiens, UniProt Q12809)
[18] = 10 micromolar test article, Adrenergic a1A receptor
[19] = 10 micromolar test article, Adrenergic α2A receptor
[20] = 10 micromolar test article, Benzodiazapine GABA channel
[21] = 10 micromolar test article, Calcium Channel L-Type, Dihydropyridine
[22] = 10 micromolar test article, Dopamine D2S receptor
[23] = 10 micromolar test article, N-Methyl-D-aspartate
[24] = 10 micromolar test article, Phosphodiesterase 4D2
[25] = 10 micromolar test article, Sodium channel
[26] = 10 micromolar test article, Voltage-gated potassium channel
[27] = 10 micromolar test article, results greater than 50% deemed significant

safety screen panel of human pharmacological targets (Homo sapiens, UniProt P34972), sequence (P34972 whole entry): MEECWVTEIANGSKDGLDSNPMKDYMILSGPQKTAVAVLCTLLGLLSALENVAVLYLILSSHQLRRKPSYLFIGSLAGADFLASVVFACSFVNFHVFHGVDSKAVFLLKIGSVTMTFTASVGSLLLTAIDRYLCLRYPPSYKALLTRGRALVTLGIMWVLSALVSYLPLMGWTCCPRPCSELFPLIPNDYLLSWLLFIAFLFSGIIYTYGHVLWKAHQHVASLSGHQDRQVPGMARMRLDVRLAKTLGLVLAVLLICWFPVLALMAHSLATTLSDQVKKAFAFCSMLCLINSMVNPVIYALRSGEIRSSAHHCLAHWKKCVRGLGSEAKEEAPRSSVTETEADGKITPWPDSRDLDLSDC
safety screen panel of human pharmacological targets (Homo sapiens, UniProt P41143), sequence (P41143 whole entry): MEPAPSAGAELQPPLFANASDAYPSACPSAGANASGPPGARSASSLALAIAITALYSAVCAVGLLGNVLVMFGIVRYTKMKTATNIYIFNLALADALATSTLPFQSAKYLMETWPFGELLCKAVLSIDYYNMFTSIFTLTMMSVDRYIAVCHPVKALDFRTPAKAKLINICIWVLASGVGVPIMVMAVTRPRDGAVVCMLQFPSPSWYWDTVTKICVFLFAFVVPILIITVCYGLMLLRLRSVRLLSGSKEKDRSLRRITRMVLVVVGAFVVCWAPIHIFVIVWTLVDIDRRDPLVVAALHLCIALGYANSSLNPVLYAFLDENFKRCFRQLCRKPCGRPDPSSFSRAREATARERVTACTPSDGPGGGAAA
safety screen panel of human pharmacological targets (Homo sapiens, UniProt Q12809), sequence (Q12809 whole entry): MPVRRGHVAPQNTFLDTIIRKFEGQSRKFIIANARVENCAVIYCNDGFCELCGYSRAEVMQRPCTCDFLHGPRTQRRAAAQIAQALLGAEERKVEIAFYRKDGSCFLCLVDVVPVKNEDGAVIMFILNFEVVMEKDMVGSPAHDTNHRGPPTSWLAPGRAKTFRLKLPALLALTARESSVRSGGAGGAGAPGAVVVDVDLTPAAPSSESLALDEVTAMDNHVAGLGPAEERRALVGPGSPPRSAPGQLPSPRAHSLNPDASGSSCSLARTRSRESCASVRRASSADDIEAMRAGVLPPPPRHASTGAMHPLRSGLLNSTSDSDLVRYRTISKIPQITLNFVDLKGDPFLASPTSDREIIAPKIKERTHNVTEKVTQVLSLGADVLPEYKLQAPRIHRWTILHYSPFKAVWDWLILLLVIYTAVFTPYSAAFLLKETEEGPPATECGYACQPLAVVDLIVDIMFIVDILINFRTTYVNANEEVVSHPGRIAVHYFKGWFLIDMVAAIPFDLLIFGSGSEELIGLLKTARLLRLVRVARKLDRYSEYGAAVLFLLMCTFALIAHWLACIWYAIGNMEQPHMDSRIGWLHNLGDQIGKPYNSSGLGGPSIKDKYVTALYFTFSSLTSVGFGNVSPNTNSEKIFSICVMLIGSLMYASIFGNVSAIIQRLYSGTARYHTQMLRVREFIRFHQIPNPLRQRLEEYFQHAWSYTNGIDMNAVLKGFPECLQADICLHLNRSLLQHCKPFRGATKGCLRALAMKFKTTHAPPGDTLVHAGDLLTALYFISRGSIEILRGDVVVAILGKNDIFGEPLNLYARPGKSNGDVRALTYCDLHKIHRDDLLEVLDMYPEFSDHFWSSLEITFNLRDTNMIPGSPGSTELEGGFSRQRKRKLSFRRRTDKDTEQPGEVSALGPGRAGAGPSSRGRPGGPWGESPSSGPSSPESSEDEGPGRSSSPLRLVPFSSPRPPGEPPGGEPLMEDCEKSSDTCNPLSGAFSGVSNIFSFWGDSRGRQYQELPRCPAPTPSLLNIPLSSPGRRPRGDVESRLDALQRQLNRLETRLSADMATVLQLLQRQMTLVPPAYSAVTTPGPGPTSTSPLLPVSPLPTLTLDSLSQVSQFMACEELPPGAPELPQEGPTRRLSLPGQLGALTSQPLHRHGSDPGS
safety screen panel of human pharmacological targets (Homo sapiens, UniProt Q01959), sequence (Q01959 whole entry): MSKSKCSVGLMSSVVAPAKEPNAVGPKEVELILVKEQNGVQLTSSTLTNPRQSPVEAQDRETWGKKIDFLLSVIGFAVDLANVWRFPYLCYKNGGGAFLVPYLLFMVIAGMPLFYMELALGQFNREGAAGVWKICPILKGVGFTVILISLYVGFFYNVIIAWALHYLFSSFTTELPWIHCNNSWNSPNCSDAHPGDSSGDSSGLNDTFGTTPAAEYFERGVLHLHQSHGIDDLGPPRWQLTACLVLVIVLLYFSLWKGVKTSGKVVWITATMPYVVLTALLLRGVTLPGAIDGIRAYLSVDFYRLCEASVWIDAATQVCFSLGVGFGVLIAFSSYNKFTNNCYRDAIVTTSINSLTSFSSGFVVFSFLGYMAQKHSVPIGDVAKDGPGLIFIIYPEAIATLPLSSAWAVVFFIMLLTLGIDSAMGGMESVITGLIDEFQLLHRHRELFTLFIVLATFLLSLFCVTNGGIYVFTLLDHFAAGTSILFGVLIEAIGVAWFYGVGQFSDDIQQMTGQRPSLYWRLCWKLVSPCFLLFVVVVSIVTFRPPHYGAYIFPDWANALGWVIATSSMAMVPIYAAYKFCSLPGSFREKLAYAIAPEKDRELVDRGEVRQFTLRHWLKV
safety screen panel of human pharmacological targets (Homo sapiens, UniProt P35372), sequence (P35372 whole entry): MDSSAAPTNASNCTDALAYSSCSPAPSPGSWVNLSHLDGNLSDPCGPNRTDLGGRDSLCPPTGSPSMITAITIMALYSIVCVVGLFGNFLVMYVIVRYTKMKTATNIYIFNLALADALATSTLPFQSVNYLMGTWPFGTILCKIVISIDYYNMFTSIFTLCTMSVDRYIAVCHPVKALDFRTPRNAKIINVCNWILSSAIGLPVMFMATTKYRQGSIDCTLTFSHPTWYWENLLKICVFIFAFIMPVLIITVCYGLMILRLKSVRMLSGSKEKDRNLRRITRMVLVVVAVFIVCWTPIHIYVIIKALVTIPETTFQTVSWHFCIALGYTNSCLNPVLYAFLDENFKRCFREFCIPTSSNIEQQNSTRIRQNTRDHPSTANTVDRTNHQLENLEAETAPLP
safety screen panel of human pharmacological targets (Homo sapiens, UniProt P08588), sequence (P08588 whole entry): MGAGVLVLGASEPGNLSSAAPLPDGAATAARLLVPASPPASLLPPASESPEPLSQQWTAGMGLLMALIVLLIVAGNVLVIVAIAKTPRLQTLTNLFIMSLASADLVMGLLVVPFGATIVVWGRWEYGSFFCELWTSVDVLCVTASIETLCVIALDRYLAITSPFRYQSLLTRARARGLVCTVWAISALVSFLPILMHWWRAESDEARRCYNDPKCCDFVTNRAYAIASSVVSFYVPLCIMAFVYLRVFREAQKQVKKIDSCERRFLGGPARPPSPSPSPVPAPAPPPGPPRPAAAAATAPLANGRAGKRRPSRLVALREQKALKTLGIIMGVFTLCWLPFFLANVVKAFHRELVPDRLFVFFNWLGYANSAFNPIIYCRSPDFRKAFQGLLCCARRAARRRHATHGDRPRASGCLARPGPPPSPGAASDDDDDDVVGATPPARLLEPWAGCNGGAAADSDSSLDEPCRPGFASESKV
safety screen panel of human pharmacological targets (Homo sapiens, UniProt P06239), sequence (P06239 whole entry): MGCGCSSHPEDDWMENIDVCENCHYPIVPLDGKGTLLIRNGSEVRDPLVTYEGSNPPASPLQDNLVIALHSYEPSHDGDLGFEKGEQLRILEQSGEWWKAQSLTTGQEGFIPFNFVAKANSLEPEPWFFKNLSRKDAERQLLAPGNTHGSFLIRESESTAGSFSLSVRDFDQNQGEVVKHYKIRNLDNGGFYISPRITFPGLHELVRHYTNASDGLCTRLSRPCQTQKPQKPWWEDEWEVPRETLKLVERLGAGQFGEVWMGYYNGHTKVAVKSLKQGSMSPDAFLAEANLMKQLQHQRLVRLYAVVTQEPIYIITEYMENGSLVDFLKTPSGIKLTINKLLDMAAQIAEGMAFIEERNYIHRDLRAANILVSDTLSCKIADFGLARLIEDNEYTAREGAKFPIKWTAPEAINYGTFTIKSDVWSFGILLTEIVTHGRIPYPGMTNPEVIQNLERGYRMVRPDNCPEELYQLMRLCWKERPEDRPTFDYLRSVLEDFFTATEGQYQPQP
safety screen panel of human pharmacological targets (Homo sapiens, UniProt P22303), sequence (P22303 32-614): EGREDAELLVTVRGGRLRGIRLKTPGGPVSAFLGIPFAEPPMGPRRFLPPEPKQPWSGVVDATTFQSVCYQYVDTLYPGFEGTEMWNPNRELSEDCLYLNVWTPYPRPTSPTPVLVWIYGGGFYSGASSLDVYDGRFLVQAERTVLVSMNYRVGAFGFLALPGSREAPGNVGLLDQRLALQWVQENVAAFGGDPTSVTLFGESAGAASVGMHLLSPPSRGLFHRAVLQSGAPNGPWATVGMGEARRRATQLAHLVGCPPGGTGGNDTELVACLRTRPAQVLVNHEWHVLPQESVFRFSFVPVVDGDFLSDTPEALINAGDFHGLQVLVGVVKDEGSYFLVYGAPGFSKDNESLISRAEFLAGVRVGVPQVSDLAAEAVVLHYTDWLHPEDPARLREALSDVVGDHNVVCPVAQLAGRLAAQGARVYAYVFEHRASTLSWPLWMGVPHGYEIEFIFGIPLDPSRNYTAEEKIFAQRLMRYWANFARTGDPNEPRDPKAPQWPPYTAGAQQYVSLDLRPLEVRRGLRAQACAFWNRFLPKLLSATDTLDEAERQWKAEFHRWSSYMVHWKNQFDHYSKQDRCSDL
safety screen panel of human pharmacological targets (Rattus norvegicus, UniProt P34975), sequence (P34975 whole entry): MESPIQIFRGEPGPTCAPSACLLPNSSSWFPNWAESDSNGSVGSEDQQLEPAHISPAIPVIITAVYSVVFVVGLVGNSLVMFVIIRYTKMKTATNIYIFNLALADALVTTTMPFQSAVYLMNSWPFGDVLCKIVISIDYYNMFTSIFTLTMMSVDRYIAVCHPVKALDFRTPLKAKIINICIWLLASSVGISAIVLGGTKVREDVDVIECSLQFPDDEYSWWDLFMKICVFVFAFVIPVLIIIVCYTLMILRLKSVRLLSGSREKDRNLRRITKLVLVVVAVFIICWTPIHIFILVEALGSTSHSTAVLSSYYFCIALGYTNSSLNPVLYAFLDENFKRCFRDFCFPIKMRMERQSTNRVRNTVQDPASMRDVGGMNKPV

For `CCCCCc1cc(O[C@@H]2O[C@H](CO[C@@H]3O[C@H](CO)[C@@H](O)[C@H](O)[C@H]3O)[C@@H](O[C@@H]3O[C@H](CO)[C@@H](O)[C@H](O)[C@H]3O)[C@H](O)[C@H]2O)c2c(c1)OC(C)(C)[C@@H]1CCC(C)=C[C@@H]21` [VB311], the “change of share of total THC-glycosides in large intestine extracts versus small intestine extracts” value [1] was “further decreases”, the “change of share of total THC-glycosides in small intestine extracts versus administered mixture” value [1] was “sharp decrease” and the inhibition at 10 µM [2] was 0%. For the same molecule, the inhibition at 10 µM [3] was 0%, the inhibition at 10 µM [4] was 4% and the inhibition at 10 µM [5] was 17%. For the same molecule, the inhibition at 10 µM [6] was 28%, the inhibition at 10 µM [7] was 1% and the inhibition at 10 µM [8] was 5%. It also gave an inhibition at 10 µM [9] of -13%, an inhibition at 10 µM [10] of -7% and an inhibition at 10 µM [11] of 21%. The inhibition at 10 µM [12] was -1%, the inhibition at 10 µM [13] was -1% and the inhibition at 10 µM [14] was 12%. The inhibition at 10 µM [15] was -5%, the “percent inhibition: alpha 1A(h) (antagonist radioligand)” value (“percent inhibition: alpha 1A(h)” for short) [16, 18] was -3% and the “percent inhibition: alpha 2A (h) (antagonist radioligand)” value (from here on “percent inhibition: alpha 2A (h)”) [16, 19] was 8%. For the same molecule, the “percent inhibition: BZD (central) (agonist radioligand)” value (shortened to “percent inhibition: BZD (central)”) [16, 20] was 16%, the “percent inhibition: Ca2+ channel (L. dihydropyridine site) (antagonist radioligand)” value (shortened to “percent inhibition: Ca2+ channel”) [16, 21] was -7% and the “percent inhibition: D2S (h) (agonist radioligand)” value (“percent inhibition: D2S (h)” below) [16, 22] was -6%. For the same molecule, the “percent inhibition: NMDA (antagonist radioligand)” value (shortened to “percent inhibition: NMDA”) [16, 23] was 3%, the “percent inhibition: PDE4D2 (h)” value [16, 24] was -6% and the “percent inhibition: Na+ channel (site 2) (antagonist radioligand)” value (“percent inhibition: Na+ channel” below) [16, 25] was 5%. The “percent inhibition: KV channel (antagonist radioligand)” value (shortened to “percent inhibition: KV channel”) [16, 26] was -5%, the “number of the 44 pharmacological targets whose binding is significantly inhibited or disrupted” value [16, 27] was “did not significantly alter any of the targets” and the “percent inhibition: Potassium Channel hERG (human)- [3H] Dofetilide” value (from here on “percent inhibition … [3H] Dofetilide”) ([17]; 10 micromolar test article) was -10%.

With `CCCCCc1cc(O)c2c(c1)OC(C)(C)[C@@H]1CCC(C)=C[C@@H]21` [VB301, Δ9-Terahydrocannabinol, reference compound] the “change of share of total THC-glycosides in large intestine extracts versus small intestine extracts” value [1] was “appreciable amounts”, the “change of share of total THC-glycosides in small intestine extracts versus administered mixture” value [1] was “below the limit of detection” and the inhibition at 10 µM [2] was 43%. For the same molecule, the inhibition at 10 µM [3] was 1%, the inhibition at 10 µM [4] was 92% and the inhibition at 10 µM [5] was 97%. It also gave an inhibition at 10 µM [6] of 101%, an inhibition at 10 µM [7] of 30% and an inhibition at 10 µM [8] of 89%. The inhibition at 10 µM [9] was -21%, the inhibition at 10 µM [10] was 8% and the inhibition at 10 µM [11] was 15%. It also gave an inhibition at 10 µM [12] of 1%, an inhibition at 10 µM [13] of -12% and an inhibition at 10 µM [14] of 20%. For the same molecule, the inhibition at 10 µM [15] was 23%, the “percent inhibition: BZD (central)” value [16] was 2% and the “percent inhibition: Ca2+ channel” value [16] was 59%. The “percent inhibition: D2S (h)” value [16] was 13%, the “percent inhibition: KV channel” value [16] was 5% and the “percent inhibition: NMDA” value [16] was 10%. For the same molecule, the “percent inhibition: Na+ channel” value [16] was 65%, the “percent inhibition: PDE4D2 (h)” value [16] was -11% and the “percent inhibition: alpha 1A(h)” value [16] was 6%. For the same molecule, the “percent inhibition: alpha 2A (h)” value [16] was 94%, the “number of the 44 pharmacological targets whose binding is significantly inhibited or disrupted” value ([16]; human) was 16 and the “percent inhibition … [3H] Dofetilide” value ([17]; human) was 67%.

With `CCCCCc1cc(O[C@@H]2O[C@H](CO)[C@@H](O)[C@H](O)[C@H]2O)c2c(c1)OC(C)(C)[C@@H]1CCC(C)=C[C@@H]21` [VB302, Δ9THC-1-O-glucopyranoside] the “change of share of total THC-glycosides in large intestine extracts versus small intestine extracts” value [1] was “further increases”, the “change of share of total THC-glycosides in small intestine extracts versus administered mixture” value [1] was “increases” and the inhibition at 10 µM [2] was 5%. The inhibition at 10 µM [3] was 7%, the inhibition at 10 µM [4] was 20% and the inhibition at 10 µM [5] was 22%. For the same molecule, the inhibition at 10 µM [6] was 18%, the inhibition at 10 µM [7] was -1% and the inhibition at 10 µM [8] was -5%. The inhibition at 10 µM [9] was -4%, the inhibition at 10 µM [10] was 10% and the inhibition at 10 µM [11] was -10%. For the same molecule, the inhibition at 10 µM [12] was 7%, the inhibition at 10 µM [13] was 2% and the inhibition at 10 µM [14] was -8%. The inhibition at 10 µM [15] was 11%, the “percent inhibition: alpha 1A(h)” value [16, 18] was -5% and the “percent inhibition: alpha 2A (h)” value [16, 19] was 0%. For the same molecule, the “percent inhibition: BZD (central)” value [16, 20] was -10%, the “percent inhibition: Ca2+ channel” value [16, 21] was 22% and the “percent inhibition: D2S (h)” value [16, 22] was 22%. The “percent inhibition: NMDA” value [16, 23] was 8%, the “percent inhibition: PDE4D2 (h)” value [16, 24] was -8% and the “percent inhibition: Na+ channel” value [16, 25] was 13%. The “percent inhibition: KV channel” value [16, 26] was 1%, the “number of the 44 pharmacological targets whose binding is significantly inhibited or disrupted” value [16, 27] was “did not significantly alter any of the targets” and the “percent inhibition … [3H] Dofetilide” value ([17]; 10 micromolar test article) was -23%.
